Experimental data: patent US20180084782A1, “METHOD OF CONTROL OF STINKBUGS” (Syngenta Participations AG, priority 2015, published 2018)
Where two headings read alike, the source gives them in different places.

System: Euschistus heros (neotropical brown stink bug)
Test: Insecticidal activity against Euschistus heros: contact/feeding activity on sprayed soybean plants
Type: in vivo
Settings: 120 h
Method: Insecticidal activity against Euschistus heros (neotropical brown stink bug): contact/feeding activity of compounds 1 and 3 according to the invention and 2 and 4 as comparison:
Two week old soybean plants were sprayed in a turn table spray chamber with the diluted spray solutions. After drying, two soybean seeds were added and plants were infested with ten N-2 nymphs of the neotropical brown stink bug Euschistus heros in plastic test boxes. Boxes were incubated in a climate chamber at 25° C. and 60% relative humidity. Evaluation is done 5 days after infestation on mortality and growth effect.

[1] = 0.2 ppm spray, N-2 nymphs on soybean plants, evaluation 5 days after infestation, read-out: Mortality (%)
[2] = 0.8 ppm spray, N-2 nymphs on soybean plants, evaluation 5 days after infestation, read-out: Mortality (%)
[3] = 3 ppm spray, N-2 nymphs on soybean plants, evaluation 5 days after infestation, read-out: Mortality (%)

SMILES	mortality at 0.0125 ppm	mortality at 0.05 ppm	mortality at 0.2 ppm	mortality at 0.8 ppm	mortality at 3 ppm	mortality at 0.0125 ppm (0.0125 ppm spray, N-2 nymphs on soybean plants, evaluation 5 days after infestation, read-out: Mortality (%))	mortality at 0.05 ppm (0.05 ppm spray, N-2 nymphs on soybean plants, evaluation 5 days after infestation, read-out: Mortality (%))	mortality at 0.2 ppm [1]	mortality at 0.8 ppm [2]	mortality at 3 ppm [3]
Cn1nc(C(F)(F)C(F)(F)F)c(C(F)(F)F)c1-n1cc(-c2ccc(Cl)c(C(=O)NC3CC3)c2)cn1 [Compound 1]	35%	50%	95%	100%	100%	–	–	–	–	–
Cn1nc(C(F)(F)C(F)(F)F)c(C(F)(F)F)c1-n1cc(-c2ccc(Cl)c(C(=O)NC3CC3)c2)nn1 [Compound 2, reference compound]	–	–	–	–	–	0%	10%	20%	35%	100%
Cn1nc(C(F)(F)C(F)(F)F)c(C(F)(F)F)c1-n1cc(-c2ccc(Cl)c(C(=O)NC3(C#N)CC3)c2)cn1 [Compound 3]	15%	35%	95%	95%	100%	–	–	–	–	–
Cn1nc(C(F)(F)C(F)(F)F)c(C(F)(F)F)c1-n1cc(-c2ccc(Cl)c(C(=O)NC3(C#N)CC3)c2)nn1 [Compound 4, reference compound]	–	–	–	–	–	–	–	0%	20%	95%
